Measured values published in patent US20020173662A1, “Parasiticidal pyrazoles” (priority 1998, published 2002).

Columns and labels:
[1] = tested on: adult Stomoxys calcitrans; test: Test for insecticidal activity: topical application to adult flies, mortality at 24 hours; assay type: in vivo; conditions: acetone solution (1 μl) applied to thorax, mortality assessed 24 hours after dosing
Protocol: Test for Insecticidal Activity Adult flies (Stomoxys calcitrans) are collected and anaesthetized using CO2. An acetone solution (1 μl) containing the test compound is applied directly to the thorax of each fly and then the flies are placed carefully into a 50 ml tube covered with damp gauze to recover from the CO2. Negative controls have acetone (1 μl) dispensed onto them. Mortality is assessed 24 hours after dosing. Table 1 illustrates the in vivo activity of a selection of the compounds of the invention against adult Stomoxys calcitrans. Dosages required to produce 100% mortality are given in the final column as μg/fly.

[2] = tested on: Boophilus microplus larvae; test: Test for acaricidal activity: treated filter paper envelope, larval mortality; conditions: larvae in treated filter paper envelope; 25° C.; mortality assessed after 48 hours
Protocol: Test for Acaricidal Activity
A dose of 10 μg/cm^2 is created by evenly pipetting 0.5 ml of a 1 mg/ml solution of the test compound in a suitable solvent such as acetone or ethanol onto a Whatman No. 1 (Trade Mark) filter paper cut to a size of 8×6.25 cm. When dry, the paper is folded in half, sealed on two sides using a crimping device and placed in a Kilner jar containing a cotton wool pad dampened with water. The jar is then sealed and placed at 25° C. for 24 hours. Next, approximately 50 Boophilus microplus larvae are introduced into the treated paper envelope which is then crimped along the third side to effect a complete seal. The paper envelope is returned to the Kilner jar, which is sealed and placed at 25° C. for a further 48 hours. The papers are then removed and mortality assessed. Negative controls are provided by treating an appropriately cut filter paper with 0.5 ml of solvent only and following the same procedure. Activity at other doses is obtained by varying the concentration of the test solution.
Table 2 illustrates the in vitro activity of a selection of the compounds of the invention against Boophilus microplus larvae. Dosages required to produce 100% mortality are given in the final column as μg/cm^2.

| SMILES | Dosage required to produce 100% mortality [1] [μG/FLY] | melting point [°C] | Dosage required to produce 100% mortality [2] [μg/cm^2] |
| --- | --- | --- | --- |
| C=Cc1nn(-c2c(Cl)cc(C(F)(F)F)cc2Cl)cc1C1CC1(Br)Br (stereo not shown) [Example 4, 4-(2,2-Dibromocyclopropyl)-1-(2,6-dichloro-4-trifluoromethylphenyl)-3-ethenylpyrazole] | 0.10 |  |  |
| FC(F)(F)c1cc(Cl)c(-n2cc(C3CC3(Br)Br)c(C=C(Br)Br)n2)c(Cl)c1 (stereo not shown) [Example 6, 4-(2,2-Dibromocyclopropyl)-3-(2,2-dibromoethenyl)-1-(2,6-dichloro-4-trifluoromethylphenyl)pyrazole] |  | 106 to 107 |  |
| FC(F)(F)c1cc(Cl)c(-n2cc(C3CC3(Br)Br)c(Br)n2)c(Cl)c1 (stereo not shown) [Example 11, 3-Bromo4-(2,2-dibromocyclopropyl)-1-(2,6-dichloro-4-trifluoromethylphenyl)pyrazole] | 0.05 |  | 1.00 |
| FC(F)(F)c1cc(Cl)c(-n2cc(C3CC3(Br)Br)c(Cl)n2)c(Cl)c1 (stereo not shown) [Example 10, 3-Chloro-4-(2,2-dibromocyclopropyl)-1-(2,6-dichloro-4-trifluoromethylphenyl)pyrazole] |  |  | 1.00 |
| NC(=O)c1nn(-c2c(Cl)cc(C(F)(F)F)cc2Cl)cc1C1CC1(Br)Br (stereo not shown) [Example 7, 3-Carbamoyl-4-(2,2-dibromocyclopropyl)-1-(2,6-dichloro-4-trifluoromethylphenyl)pyrazole] |  | 186.2 to 187.3 |  |
| FC(F)=Cc1nn(-c2c(Cl)cc(C(F)(F)F)cc2Cl)cc1C1CC1(Br)Br (stereo not shown) [Example 5, 4-(2,2-Dibromocyclopropyl)-1-(2,6-dichloro-4-trifluoromethylphenyl)-3-(2,2-difluoroethenyl)pyrazole] | 0.10 |  |  |
| C=C(C)c1nn(-c2c(Cl)cc(C(F)(F)F)cc2Cl)cc1C1CC1(Br)Br (stereo not shown) [Example 1, 4-(2,2-Dibromocyclopropyl)-1-(2,6-dichloro-4-trifluoromethylphenyl)-3-(propen-2-yl)pyrazole] |  | 86.5 to 88.2 |  |
| Nc1nn(-c2c(Cl)cc(C(F)(F)F)cc2Cl)cc1C1CC1(Br)Br (stereo not shown) [Example 8, 3-Amino-4-(2,2-dibromocyclopropyl)-1-(2,6-dichloro-4-trifluoromethylphenyl)pyrazole] |  | 124.9 to 126 |  |
| FC(F)(F)c1cc(Cl)c(-n2cc(C3CC3(Br)Br)cn2)c(Cl)c1 (stereo not shown) [Example 9, 4-(2,2-Dibromocyclopropyl)-1-(2,6-dichloro-4-trifluoromethylphenyl)pyrazole] | 0.05 |  |  |
